This is an account of results in ChEMBL document CHEMBL1201862, “PubChem BioAssay data set” (2004).

One assay concerns the target T1, Protein skinhead-1 (Caenorhabditis elegans, UniProt P34707).
T1 sequence (P34707 whole entry): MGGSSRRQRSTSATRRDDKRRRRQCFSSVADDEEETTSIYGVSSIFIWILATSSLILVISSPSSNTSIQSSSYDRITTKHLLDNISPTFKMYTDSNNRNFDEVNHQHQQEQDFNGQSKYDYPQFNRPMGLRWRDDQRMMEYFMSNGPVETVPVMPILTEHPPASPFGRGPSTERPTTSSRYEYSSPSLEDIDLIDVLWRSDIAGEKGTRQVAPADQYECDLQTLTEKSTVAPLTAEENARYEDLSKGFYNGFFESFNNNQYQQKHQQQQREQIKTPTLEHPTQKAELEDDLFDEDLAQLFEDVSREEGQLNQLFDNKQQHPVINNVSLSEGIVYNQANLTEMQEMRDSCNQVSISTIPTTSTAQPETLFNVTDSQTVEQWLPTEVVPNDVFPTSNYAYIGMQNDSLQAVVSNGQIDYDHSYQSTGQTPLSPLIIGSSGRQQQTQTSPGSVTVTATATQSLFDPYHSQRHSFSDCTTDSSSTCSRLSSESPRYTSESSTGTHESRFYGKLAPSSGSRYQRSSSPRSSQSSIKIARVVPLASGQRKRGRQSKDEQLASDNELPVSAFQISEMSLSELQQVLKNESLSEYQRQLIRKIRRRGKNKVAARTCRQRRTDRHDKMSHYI
It counts as functional.

A short description of assay [1]: activation of miR-122 Renilla sensor silencing – cell-based, Huh7 psiCHECK-miR122, Renilla luciferase, cherry-picked, dose response (AID 651956).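 Also: huh7 hepatoma cells stably carrying a psiCHECK-2 miR-122 sensor plasmid; renilla luciferase signal reporting endogenous miR-122 activity after 48 h compound exposure.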 The assay is classed as functional.
The nature of assay [2]: general mammalian cell viability loss – activator set, cherry-pick, cytotoxicity control for miR-122 modulator project, dose response (AID 720690).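 Also: HEK293T human cells scored for general mammalian cytotoxicity.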 The assay is classed as functional, cell-based.
In the next assay the test system is Vero. Nature of the assay: viability of Vero cells under compound – cytotoxicity control for flavivirus capping enzyme inhibitors (AID 588742). It counts as functional. Conditions: Chlorocebus sabaeus.
The target in assay [3] is T2, Sentrin-specific protease 8 (Homo sapiens, UniProt Q96LD8).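 Also: luminescence read-out of SENP8 inhibition, dose-response confirmation following an ultra-high-throughput screen.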
T2 sequence (Q96LD8 whole entry): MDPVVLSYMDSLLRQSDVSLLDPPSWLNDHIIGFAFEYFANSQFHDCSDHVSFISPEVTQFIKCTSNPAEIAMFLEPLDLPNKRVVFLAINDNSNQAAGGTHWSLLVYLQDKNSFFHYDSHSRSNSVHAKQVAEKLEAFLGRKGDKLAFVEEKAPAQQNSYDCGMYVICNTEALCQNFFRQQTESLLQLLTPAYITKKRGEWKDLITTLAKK
The assay is classed as functional.

Assay [4] addresses T3, Rac GTPase-activating protein 1 (Homo sapiens, UniProt Q9H0H5).
T3 sequence (Q9H0H5 whole entry): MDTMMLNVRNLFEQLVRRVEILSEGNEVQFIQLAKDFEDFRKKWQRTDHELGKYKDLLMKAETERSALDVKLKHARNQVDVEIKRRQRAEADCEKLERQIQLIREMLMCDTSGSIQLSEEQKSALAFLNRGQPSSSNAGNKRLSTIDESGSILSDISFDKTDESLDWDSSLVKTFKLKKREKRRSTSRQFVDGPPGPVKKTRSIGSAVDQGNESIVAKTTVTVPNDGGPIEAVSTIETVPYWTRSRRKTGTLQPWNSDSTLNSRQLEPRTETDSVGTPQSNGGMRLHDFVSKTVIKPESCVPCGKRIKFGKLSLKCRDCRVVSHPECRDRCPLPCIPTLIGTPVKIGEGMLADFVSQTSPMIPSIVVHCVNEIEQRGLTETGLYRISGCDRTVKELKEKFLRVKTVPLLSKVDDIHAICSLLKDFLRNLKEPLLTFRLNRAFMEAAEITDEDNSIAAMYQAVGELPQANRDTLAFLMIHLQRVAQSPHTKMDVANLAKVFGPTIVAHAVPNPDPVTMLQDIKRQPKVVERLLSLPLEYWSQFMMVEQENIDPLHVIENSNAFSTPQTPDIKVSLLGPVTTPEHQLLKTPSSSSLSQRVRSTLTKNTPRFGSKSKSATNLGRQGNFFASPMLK
Nature of the assay: blockers of MgcRacGAP-driven Rac1 GTP hydrolysis – biochemical, ADP Hunter fluorescence, primary and confirmatory, confirmation (AID 624330). It counts as functional.

In assay [5] the test system is HEK293. Nature of the assay: cells. It counts as functional, cell-based. The following applies: Homo sapiens.
Assay [6] can be described thus: T. cruzi infection blockers in NIH3T3 cells – beta-gal luminescence, NIH3T3 host cells, confirmation (AID 2630). The assay is classed as functional, cell-based. The following applies: Mus musculus.
Assay [7] has as its system HEK293. Nature of the assay: cells. It counts as functional, cell-based. The following applies: Homo sapiens. The source holds these as a separate data set.
Assay [8] deals with T4, Microphthalmia-associated transcription factor (Homo sapiens, UniProt O75030).
T4 sequence (O75030 whole entry): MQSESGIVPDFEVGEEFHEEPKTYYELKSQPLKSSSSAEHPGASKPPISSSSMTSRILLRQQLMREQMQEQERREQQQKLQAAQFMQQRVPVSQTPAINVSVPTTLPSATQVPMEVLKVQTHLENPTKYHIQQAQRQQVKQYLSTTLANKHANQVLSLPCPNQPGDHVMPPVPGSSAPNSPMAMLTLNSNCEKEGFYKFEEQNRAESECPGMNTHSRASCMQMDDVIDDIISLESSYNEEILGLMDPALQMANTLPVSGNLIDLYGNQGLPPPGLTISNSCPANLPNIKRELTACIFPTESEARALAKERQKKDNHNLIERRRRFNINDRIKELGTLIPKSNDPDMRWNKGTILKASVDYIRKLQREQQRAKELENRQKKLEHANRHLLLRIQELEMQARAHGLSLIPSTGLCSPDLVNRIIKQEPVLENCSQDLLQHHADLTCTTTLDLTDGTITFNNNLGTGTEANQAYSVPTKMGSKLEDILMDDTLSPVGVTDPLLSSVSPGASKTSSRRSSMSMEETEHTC
Nature of the assay: reducers of TRPM1 reporter luminescence, concentration series – cell-based, SK-MEL-5, cherry-picked, set 3, MITF inhibitor project, dose response (AID 493073).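 Also: SK-MEL-5 melanoma cells with luciferase driven by the MITF target TRPM1 promoter.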 The assay is classed as functional.

Active and inactive are the calls of the source.

As a reminder, the IC50 is the point on the concentration scale where inhibition reaches its midpoint. By AC50 is commonly meant the concentration giving half of the maximal activity seen. Regarding `O=C(CC(O)(C(F)(F)F)C(F)(F)F)Nc1ccc(Cl)c(Cl)c1`, the IC50 at Protein skinhead-1 is 19.6 µM (active). Besides, the AC50 in [1] was 5.54 µM (active); in assay [2], 2.27 µM (active).
Broadly, the CC50 is the concentration at which the toxic effect on the cells reaches its halfway point. On to `O=C(O)CSc1cc(NS(=O)(=O)c2ccc(Br)cc2)c2ccccc2c1O`, for which, in the assay on Vero, the CC50 was 34 µM (active).
For `O=C1NC(=S)N/C1=C/c1cc2c(cc1[N+](=O)[O-])OCO2`, the IC50 in [3] is 9.01 µM (active).
Regarding `Cc1ccc(NC(=O)C2=C(c3ccccc3)S(=O)(=O)CCS2(=O)=O)cc1`, in [4], the IC50 was 97.4 µM (active).
One may read the EC50 as the concentration that produces a half-maximal response. Regarding `O=C(CNc1cccc2ccccc12)N/N=C/c1ccc([N+](=O)[O-])o1`, the IC50 in the assay with HEK293 [5] was > 20 µM (inactive); in the assay on HEK293 [7], 14.3 µM (active). Moreover, the EC50 in assay [6] is 0.022 µM (active). Besides, in [8], the AC50 is 5.05 µM (active).
